Patent publication US20250230171A1 (MOMA Therapeutics, Inc., priority 2023, published 2025)

Molecular target: biotinylated Avi-POLθ[2-894] (Homo sapiens (Human), UniProt O75417)
Assay: POLθ ATPase assay (ADP-Glo)
Conditions: n=2; read-out: Biochemical ATPase ADPGlo IC50

Chain of biotinylated Avi-POLθ[2-894] (O75417 2-894): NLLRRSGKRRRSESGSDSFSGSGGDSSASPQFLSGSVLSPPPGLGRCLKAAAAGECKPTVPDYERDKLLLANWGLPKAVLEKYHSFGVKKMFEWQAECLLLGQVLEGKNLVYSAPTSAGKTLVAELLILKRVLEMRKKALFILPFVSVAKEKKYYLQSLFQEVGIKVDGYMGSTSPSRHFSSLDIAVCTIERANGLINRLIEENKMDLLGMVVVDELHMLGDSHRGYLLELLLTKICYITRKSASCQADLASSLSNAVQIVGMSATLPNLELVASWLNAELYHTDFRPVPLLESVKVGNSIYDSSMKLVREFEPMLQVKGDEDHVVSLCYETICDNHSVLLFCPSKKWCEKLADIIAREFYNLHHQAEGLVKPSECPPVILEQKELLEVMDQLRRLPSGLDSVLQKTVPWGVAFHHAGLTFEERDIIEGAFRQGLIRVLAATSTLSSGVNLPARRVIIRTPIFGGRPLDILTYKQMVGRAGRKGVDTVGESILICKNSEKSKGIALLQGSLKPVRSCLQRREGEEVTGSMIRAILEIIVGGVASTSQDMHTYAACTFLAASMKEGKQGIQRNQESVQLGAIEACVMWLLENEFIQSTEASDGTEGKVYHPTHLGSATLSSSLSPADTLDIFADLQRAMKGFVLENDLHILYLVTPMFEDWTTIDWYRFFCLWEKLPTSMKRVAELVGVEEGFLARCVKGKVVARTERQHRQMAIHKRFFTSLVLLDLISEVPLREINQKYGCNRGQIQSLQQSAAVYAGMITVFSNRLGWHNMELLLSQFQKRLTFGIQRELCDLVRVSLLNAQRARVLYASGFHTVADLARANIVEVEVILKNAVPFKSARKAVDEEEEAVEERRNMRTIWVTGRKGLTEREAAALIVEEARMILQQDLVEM

SMILES	IC50 [µM]
COc1cnc(Cl)cc1-c1cc(C)ncc1C(=O)Nc1nc2c(s1)CN(C(=O)[C@H]1C[C@](F)(CO)C1)C2 [Example 105, 2′-chloro-N-(5-((1s,3s)-3-fluoro-3-(hydroxymethyl)cyclobutane-1-carbonyl)-5,6-dihydro-4H-pyrrolo[3,4-d]thiazol-2-yl)-5′-methoxy-6-methyl-[4,4′-bipyridine]-3-carboxamide]	0.015 to 0.05
COc1cnc(Cl)cc1-c1cc(C)ncc1C(=O)Nc1nc2c(s1)CN(C(=O)[C@H]1C[C@@](F)(CO)C1)C2 [Example 106, 2′-chloro-N-(5-((1r,3r)-3-fluoro-3-(hydroxymethyl)cyclobutane-1-carbonyl)-5,6-dihydro-4H-pyrrolo[3,4-d]thiazol-2-yl)-5′-methoxy-6-methyl-[4,4′-bipyridine]-3-carboxamide]	0.001 to 0.015
COc1cnc(Cl)cc1-c1cc(C)ncc1C(=O)Nc1nc2c(s1)CN(C(=O)[C@@H]1C[C@@H]1CO)C2 [Example 107, 2′-chloro-N-(5-((1R,2S)-2-(hydroxymethyl)cyclopropane-1-carbonyl)-5,6-dihydro-4H-pyrrolo[3,4-d]thiazol-2-yl)-5′-methoxy-6-methyl-[4,4′-bipyridine]-3-carboxamide]	0.05 to 0.15
COc1cnc(C)cc1-c1cc(C)ncc1C(=O)Nc1nc2c(s1)CN(C(=O)c1ccccn1)C2 [Example 108, 5′-methoxy-2′,6-dimethyl-N-(5-picolinoyl-5,6-dihydro-4H-pyrrolo[3,4-d]thiazol-2-yl)-[4,4′-bipyridine]-3-carboxamide]	0.015 to 0.05
COc1cnc(Cl)cc1-c1cc(C)ncc1C(=O)Nc1nc2c(s1)CN(C(=O)C1CCC(O)(C(F)(F)F)CC1)C2 (stereo not shown) [Example 112]	0.001 to 0.015
COc1cnc(Cl)cc1-c1cc(C)ncc1C(=O)Nc1nc2c(s1)CN(C(=O)[C@H]1CC[C@@H](O)CC1)C2 [Example 115]	0.015 to 0.05
COc1cnc(Cl)cc1-c1cc(C)ncc1C(=O)Nc1nc2c(s1)CN(C(=O)C1CC(OC(C)C)C1)C2 (stereo not shown) [Example 119]	0.001 to 0.015
COc1cnc(Cl)cc1-c1cc(C)ncc1C(=O)Nc1nc2c(s1)CN(C(=O)C1CN(CC(F)(F)F)C1)C2 [Example 120]	0.015 to 0.05
COc1cn2cncc2cc1-c1cc(C)ncc1C(=O)Nc1nc2c(s1)CN(C(=O)c1cccnc1OC)C2 [Example 124]	0.001 to 0.015
COc1cnc(Cl)cc1-c1cc(C)ncc1C(=O)Nc1nc2c(s1)CN(C(=O)N1CC[C@@H](O)C1)C2 [Example 129]	0.001 to 0.015
COc1cnc(Cl)cc1-c1cc(C)ncc1C(=O)Nc1nc2c(s1)CN(C(=O)c1ccnn1CC(F)F)C2 [Example 143, 2′-chloro-N-(5-(1-(2,2-difluoroethyl)-1H-pyrazole-5-carbonyl)-5,6-dihydro-4H-pyrrolo[3,4-d]thiazol-2-yl)-5′-methoxy-6-methyl-[4,4′-bipyridine]-3-carboxamide]	0.001 to 0.015
COc1cnc(Cl)cc1-c1cc(C)ncc1C(=O)Nc1nc2c(s1)CN(C(=O)N1CC(O)C1)C2 [Example 149]	0.05 to 0.15
COc1cnc(Cl)cc1-c1cc(C)ncc1C(=O)Nc1nc2c(s1)CN(C(=O)c1cn(C)nc1C(F)F)C2 [Example 173]	0.001 to 0.015
COc1ccc(C#N)cc1-c1cc(C)ncc1C(=O)Nc1nc2c(s1)CN(C(=O)C1CC(OC(F)F)C1)CC2 (stereo not shown) [Example 176]	0.05 to 0.15
COc1cnc(Cl)cc1-c1cc(C)ncc1C(=O)Nc1nc2c(s1)CN(C(=O)C1CCC(O)C1)C2 (stereo not shown) [Example 180]	0.001 to 0.015
COc1cnc(Cl)cc1-c1cc(C)ncc1C(=O)Nc1nc2c(s1)CN(C(=O)[C@@H]1CCOC1)C2 [Example 181]	0.001 to 0.015
COc1cnc(Cl)cc1-c1cc(C)ncc1C(=O)Nc1nc2c(s1)CN(C(=O)c1ncco1)C2 [Example 182]	0.001 to 0.015
COc1cnc(Cl)cc1-c1cc(C)ncc1C(=O)Nc1nc2c(s1)CN(C(=O)[C@H]1CCCOC1)C2 [Example 183]	0.001 to 0.015
COc1cnc(Cl)cc1-c1cc(C)ncc1C(=O)Nc1nc2c(s1)CN(C(=O)C1CCOCC1)C2 [Example 184]	0.001 to 0.015
COc1cnc(Cl)cc1-c1cc(C)ncc1C(=O)Nc1nc2c(s1)CN(C(=O)[C@H]1C[C@@H](O)C1)C2 [Example 185]	0.001 to 0.015
COc1cnc(Cl)cc1-c1cc(C)ncc1C(=O)Nc1nc2c(s1)CN(C(=O)[C@H]1CCCCO1)C2 [Example 186]	0.001 to 0.015
COc1cnc(Cl)cc1-c1cc(C)ncc1C(=O)Nc1nc2c(s1)CN(C(=O)[C@H]1C[C@H](O)C1)C2 [Example 187]	0.001 to 0.015
COc1ccc(C#N)cc1-c1cc(C)ncc1C(=O)Nc1nc2c(s1)CN(C(=O)C1CC(C)C1)C2 (stereo not shown) [Example 189]	0.001 to 0.015
COc1cnc(Cl)cc1-c1cc(C)ncc1C(=O)Nc1nc2c(s1)CN(C(=O)C1CC3(COC3)C1)C2 [Example 192]	0.001 to 0.015
COc1cnc(Cl)cc1-c1cc(C)ncc1C(=O)Nc1nc2c(s1)CN(C(=O)[C@H]1C[C@@](C)(O)C1)C2 [Example 193]	0.001 to 0.015
COc1cnc(Cl)cc1-c1cc(C)ncc1C(=O)Nc1nc2c(s1)CN(C(=O)[C@H]1C[C@](O)(C(F)F)C1)C2 [Example 195]	0.001 to 0.015

Results, then the molecule that gave them:

IC50 [µM]	SMILES
0.05 to 0.15	COc1cnc(Cl)cc1-c1cc(C)ncc1C(=O)Nc1nc2c(s1)C[C@@H](NC(=O)C1CC1)CC2 [Example 200]
0.001 to 0.015	COc1cnc(Cl)cc1-c1cc(C)ncc1C(=O)Nc1nc2c(s1)CN(C(=O)C1CC(O)(C(F)(F)F)C1)C2 (stereo not shown) [Example 204]
0.015 to 0.05	COc1ccc(C#N)cc1-c1cc(C)ncc1C(=O)Nc1nc2c(s1)CN(C(=O)C1CC1OC)CC2 (stereo not shown) [Example 207]
0.015 to 0.05	COc1ccc(C#N)cc1-c1cc(C)ncc1C(=O)Nc1nc2c(s1)CN(C(=O)C1CC1C)CC2 (stereo not shown) [Example 211]
0.05 to 0.15	COc1ccc(C#N)cc1-c1cc(C)ncc1C(=O)Nc1nc2c(s1)CN(S(=O)(=O)C1COC1)C2 [Example 217]
0.015 to 0.05	COc1ccc(C#N)cc1-c1cc(C)ncc1C(=O)Nc1nc2c(s1)CN(C(=O)[C@H]1C[C@H](OC)C1)C2 [Example 221]
0.15 to 0.9	COc1ccc(C#N)cc1-c1cc(C)ncc1C(=O)Nc1nc2c(s1)CN(C(=O)[C@@H]1CCCOC1)CC2 [Example 223]
0.15 to 0.9	COc1ccc(C#N)cc1-c1cc(C)ncc1C(=O)Nc1nc2c(s1)CN(C(=O)C1CCC1)CC2 [Example 224]
0.001 to 0.015	COc1ccc(C#N)cc1-c1cc(C)ncc1C(=O)Nc1nc2c(s1)CN(S(=O)(=O)NC1CCCC1)C2 [Example 230]
0.001 to 0.015	COc1cnc(Cl)cc1-c1cc(C)ncc1C(=O)Nc1nc2c(s1)CN(S(=O)(=O)C1CC1)C2 [Example 234]
0.001 to 0.015	COc1ccc(C#N)cc1-c1cc(C)ncc1C(=O)Nc1nc2c(s1)CN(C(=O)[C@@H]1CC[C@H]1OC)C2 [Example 235]
0.15 to 0.9	COc1ccc(C#N)cc1-c1cc(C)ncc1C(=O)Nc1nc2c(s1)CN(C(=O)c1ccccn1)CC2 [Example 247]
0.05 to 0.15	COc1ccccc1-c1cc(C)ncc1C(=O)Nc1nc2c(s1)CN(C(=O)c1nc3ccccn3n1)C2 [Example 252]
0.015 to 0.05	COc1ccccc1-c1cc(C)ncc1C(=O)Nc1nc2c(s1)CN(C(=O)c1cccc3ccnn13)C2 [Example 253]
0.15 to 0.9	COc1ccccc1-c1cc(C)ncc1C(=O)Nc1nc2c(s1)CN(C(=O)C1COC1)C2 [Example 256]
0.015 to 0.05	COc1ccc(C#N)cc1-c1cc(C)ncc1C(=O)Nc1nc2c(s1)CN(C(=O)[C@@H]1CCCO1)C2 [Example 261]
0.05 to 0.15	COc1ccccc1-c1cc(C)ncc1C(=O)Nc1nc2c(s1)CN(S(=O)(=O)NC(C)C)C2 [Example 280]
